In brackets after ≈: the same amount, converted by molar mass.
How the values were obtained:
HeLa-cell culture = experiment: Inhibition of HeLa cell cultures; type: cell-based; conditions: Homo sapiens, 72 h, 37° C. for 3 days, 5% carbon dioxide; for IC50: read-out: ED50, HeLa cell culture; for minimal effective concentration: read-out: Minimal inhibitory concentration, HeLa cell culture
Experimental: Measurement of the inhibition of cell cultures
HeLa-cell culture was treated with trypsin and adjusted to a cell number of 150,000 cells/ml of fresh medium. The substance was always dissolved in the same quantity of dimethyl sulfoxide and then further diluted with growth medium. 0.1 ml of the substance-dilutions were added to each well of microtiter plates and then 0.2 ml of cell suspension were added (4 wells per dilution). Several growth controls containing 0.1 ml of growth medium instead of 0.1 ml of substance dilution were put up. After careful mixing, the cultures were incubated at 37° C. for 3 days in a 5% carbon dioxide atmosphere. The reading was effected in comparison with these controls. The results were given as the percentage of the deficiency and degeneration compared to the growth control. […] The statements are referred to μg of substance per ml of total medium.

[1] = system: Staphylococcus aureus SG 511; experiment: Agar diffusion test (hole-test); type: cell-based; conditions: SG511, 18-20 hours at 37° C., read-out: MIC, A.D.T., Staphylococcus aureus SG 511
Experimental: (§1) The inhibitory effect on bacteria and fungi was examined by the serial dilution test and the agar diffusion test (hole-test). As bacteria were used: Staphylococcus aureus SG 511, Streptococcus Aronson, Streptococcus pyogenes At CC 86 68; as fungi: Candida albicans AT CC 10231, Trichophyton mentagrophytes AT CC 9129 and Aspergillus niger.
1. Meat extract agar: for St. aureus SG 511
(§2) The age of the primary cultures is 24 hours for bacteria and 14 days for fungi. The standardization of the suspension of microorganisms is effected using a photometer according to Eppendorf (test tube .phi.14 mm, filter 546 nm) and a suspension for comparison consisting of barium sulfate, this suspension being created by addition of 3.0 ml of 1% barium chloride solution to 97 ml of 1% sulfuric acid. After the standardization St. aureus SG 511 was diluted 1:1000 and Sc. pyogenes and Aronson 1:100 by means of sodium chloride solution. The fungi were used in an undiluted state.
(§3) 40 mgm of the substance were put into a 10 ml measuring flask and filled up to the mark with the solvent (corresponds to a dilution of 1:250=4000 μg/ml).
(§4) The dilutions to the concentrations under test were effected with distilled water or the respective solvent.
(§5) 19 ml of the nutrient medium were filled into sterile Petri dishes of a diameter of 8 cm and dried. Subsequently the agar plates were charged with 4 ml of seed agar. 100 ml of seed agar contain 1.25 ml of the suspension of microorganisms, an agar plate thus containing 0.05 ml of the suspension of microorganisms. After solidification of the agar, 5 holes of a diameter of 5 mm were punched into the plates and filled with 0.05 ml of the correspondingly concentrated substance solution.
(§6) Control tests merely using the solvent are to be carried out simultaneously.
(§7) Bacteria were incubated at 37° C. for 18-20 hours and fungi at 27° C. for 7 days.
(§8) The diameter of the area of inhibition in mm was measured after having deducted the diameter of the hole.

[2] = system: Trichophyton mentagrophytes AT CC 9129; experiment: Agar diffusion test (hole-test); type: cell-based; conditions: ATCC9129, 168 h, 27° C. for 7 days, read-out: MIC, A.D.T., Trichophyton mentagrophytes
Experimental: as §1
(§9) 3. Sabouraud agar: for C. alb., Trich. ment., A. niger
as §2, §3, §4, §5, §6, §7, §8

Aspergillus niger = experiment: Agar diffusion test (hole-test); type: cell-based; conditions: 168 h, 27° C. for 7 days, read-out: MIC, A.D.T., Aspergillus niger
Experimental: as §1, §9, §2, §3, §4, §5, §6, §7, §8

[3] = system: Candida albicans AT CC 10231; experiment: Agar diffusion test (hole-test); type: cell-based; conditions: ATCC10231, 168 h, 27° C. for 7 days, read-out: MIC, A.D.T., Candida albicans
Experimental: as §1, §9, §2, §3, §4, §5, §6, §7, §8

Pityrosporum ovale = experiment: Serial dilution test for Pityrosporum ovale; type: cell-based; conditions: Malassezia furfur, 168 h, 27° C. for 7 days, read-out: MIC, S.D.T., Pityrosporum ovale
Experimental: Serial dilution test for Corynebacterium acnes and Pityrosporum ovale Nutrient medium
For Corynebacterium acnes: thioglycolate-broth for Pityrosporum ovale: Littmann's broth, 5 ml per tube.
Suspension of microorganisms in 0.9% sodium chloride solution, standardized using a photometer according to Eppendorf by means of a suspension for comparison consisting of barium sulfate, for Corynebacterium acnes in a dilution of 1:100, for Pityrosporum ovale in an undiluted state. 0.1 ml of the suspensions was used per test tube. Dimethyl sulfoxide served as a solvent for the substances.
The suspension with Corynebacteria acnes was incubated at 37° C. for 48 hours, the suspension of Pityrosporum ovale at 27° C. for 7 days. The reading was effected by macroscopic evaluation of the growth of microorganisms and registration of the minimal inhibitory concentration.

[4] = target: glucose-6-phosphate-dehydrogenase; experiment: Inhibition of glucose-6-phosphate-dehydrogenase (G6PDH); type: biochemical; conditions: for G6PDH-inhibition Ed50, Immediate Inhibition: 25° C. for 5 minutes preincubation; for G6PDH-inhibition Ed50, Inhibition of Incubation: 37° C. for 60 minutes preincubation
Experimental: Measurement of the inhibition of the glucose-6-phosphatedehydrogenase
The equilibrium was observed:
Glucose-6-phosphate+NADP^+ G6-DH gluconic
acid-6-phosphate+NADPH+H^+
(NADP=nicotinamide-adenine-dinycleotide-phosphate, G6P-DH=gluconic acid-6-phosphate-dehydrogenase)
The formation velocity of NADPH is a measure for the enzyme activity; it may be observed by means of the extinction increase at 340, 334 or 366 nm per unit of time.
0.025 ml of glucose-6-phosphate-dehydrogenase (Boehringer Mannheim) were filled up to 10 ml of distilled water (solution I). 100 mgm of nicotinamide-adenine-dinucleotide-phosphate were dissolved in 13 ml of distilled water (solution II). 47.2 mgm of glucose-6-phosphate were dissolved in further 10 ml of distilled water (solution 3). Simultaneously a buffer solution (solution IV) was prepared as follows: 0.28 gm of triethanolamine-hydrochloride and 1.461 gm of ethylene diaminotetraacetic acid-disodium salt were dissolved in 1 liter of distilled water and adjusted to a pH of 7.6 with sodium hydroxide solution. The substance under test was dissolved in dimethyl formamide or ethanol (solution V). Tested concentrations: 50; 25; 12.5; 6.25; 3.125; 1.56 and 0.78 μg/ml.
0.1 ml of solution I, 0.1 ml of solution II, 2.67 ml of solution IV and 0.03 ml of solution V were mixed and kept at 25° C. for 5 minutes. Then 0.1 ml of solution III was added, mixed and the alteration of extinction was determined spectrophotometrically at 366 nm for 3 minutes.
0.1 ml of solution I, 0.1 ml of solution II, 2.67 ml of solution IV and 0.03 ml of solution V were mixed and kept at 37° C. for 60 minutes. Then 0.1 ml of solution III was added, mixed and the alteration of extinction was measured spectrophotometrically at 366 nm for 3 minutes.
The inhibitory values were calculated from the average values of three measurements (alteration of extinction per minute) compared with controls, which received the pure solvent as the inhibitory solution. Then the ED50 was calculated according to Reed and Muench from the inhibitory values for the various concentrations.

IC50 (HeLa-cell culture) | MIC [1] | MIC [2] | MIC (Aspergillus niger) | MIC [3] | MIC (Pityrosporum ovale) | G6PDH-inhibition Ed50, Immediate Inhibition [4] | G6PDH-inhibition Ed50, Inhibition of Incubation [4] | SMILES | minimal effective concentration (HeLa-cell culture)
12.5 µg/mL (≈ 60.6 µM) | 1000 µg/mL (≈ 4850 µM) | 250 µg/mL (≈ 1210 µM) | 250 µg/mL (≈ 1210 µM) | 1000 µg/mL (≈ 4850 µM) | 80 µg/mL (≈ 388 µM) | > 50 µg/mL | 33 µg/mL | O=C(c1ccc(O)cc1O)C(F)(F)F [A, 2,4-Dihydroxy-trifluoroacetophenone, reference compound] | 3.13 µg/mL
9.75 µg/mL (≈ 41.6 µM) | 250 µg/mL (≈ 1070 µM) | 250 µg/mL (≈ 1070 µM) | 250 µg/mL (≈ 1070 µM) | 1000 µg/mL (≈ 4270 µM) | 80 µg/mL (≈ 342 µM) | 34.5 µg/mL | 30 µg/mL | CCc1cc(C(=O)C(F)(F)F)c(O)cc1O [B, 5-Ethyl-2,4-dihydroxy-trifluoroacetophenone, reference compound] | 6.25 µg/mL
– | 62.5 µg/mL (≈ 267 µM) | 62.5 µg/mL (≈ 267 µM) | 1000 µg/mL (≈ 4270 µM) | 1000 µg/mL (≈ 4270 µM) | > 80 µg/mL | 37.5 µg/mL | 20 µg/mL | CCc1c(O)ccc(C(=O)C(F)(F)F)c1O [C, 3-Ethyl-2,4-dihydroxy-trifluoroacetophenone, reference compound] | –
90.1 µg/mL (≈ 385 µM) | > 4000 µg/mL | > 4000 µg/mL | > 4000 µg/mL | > 4000 µg/mL | > 80 µg/mL | > 50 µg/mL | > 50 µg/mL | COc1ccc(C(=O)C(F)(F)F)c(OC)c1 [D, 2,4-Dimethoxy-trifluoroacetophenone, reference compound] | 25 µg/mL
7.7 µg/mL (≈ 29.4 µM) | 62.5 µg/mL (≈ 238 µM) | ≤ 15.6 µg/mL | 250 µg/mL (≈ 953 µM) | 250 µg/mL (≈ 953 µM) | 80 µg/mL (≈ 305 µM) | 37.7 µg/mL | 27.7 µg/mL | CC(C)Cc1c(O)ccc(C(=O)C(F)(F)F)c1O [F, 2,4-Dihydroxy-3-iso-butyl-trifluoroacetophenone] | 0.78 µg/mL
4.2 µg/mL (≈ 13.9 µM) | ≤ 15.6 µg/mL | ≤ 15.6 µg/mL | 62.5 µg/mL (≈ 207 µM) | 1000 µg/mL (≈ 3310 µM) | > 80 µg/mL | – | – | CC1CCC(c2c(O)ccc(C(=O)C(F)(F)F)c2O)CC1 (stereo not shown) [H, 2,4-Dihydroxy-3-(4'-methyl)-cyclohexyl-trifluoro-acetophenone] | ≤ 0.78 µg/mL
3.52 µg/mL (≈ 14.2 µM) | 62.5 µg/mL (≈ 252 µM) | – | – | – | – | 14.8 µg/mL | 9.9 µg/mL | CC(C)c1c(O)ccc(C(=O)C(F)(F)F)c1O [P, 2,4-Dihydroxy-3-isopropyl-trifluoroacetophenone] | 1.56 µg/mL

— patent US4225619A, “Substituted fluoracylresorcinols” (Boehringer Ingelheim GmBH, priority 1976, dated 1980)
